Patent US10512656B2, “Compositions and methods for the treatment of lysosomal storage disorders and disorders characterized by lysosomal dysfunction” (Baylor College of Medicine, priority 2016, dated 2019)

Assays:
[1] = system: lysosomal and autophagy genes; experiment: Expression analysis of lysosomal and autophagy genes in HeLa cells; format: cell-based, human; conditions: HeLa cells treated with MK2206
Experimental: FIG. 24. […] (b) Immunoblot analysis of LC3 lipidation. […] (d) Expression analysis of lysosomal and autophagy genes in HeLa cells treated with MK2206. Gene expression was normalized relative to the housekeeping gene, GAPDH. The dashed line indicates relative gene expression in untreated cells. […] Scale bar, 10 μm (a), 50 nm (c) and 20 μm (f).
Control (Coriell Institute, USA) and JNCL fibroblasts (Gaslini Institute, Italy) were grown in DMEM (1:1, HyClone) supplemented with 10% heat-inactivated fetal bovine serum (FBS, Atlanta Biologicals), 2 mM L-glutamine, 100 U/ml penicillin and […] streptomycin (Invitrogen). […]
Total RNA was extracted from the control and JNCL fibroblasts and from WT and Cln3^Δex7-8 cortical neuron cultures using the RNEasy kit (Qiagen) according to the manufacturer's instructions. Half of the mouse brain was processed for the RNA extraction and one microgram was used for complementary DNA synthesis by QuantiTect Reverse Transcription kit (Qiagen). The primers for PCR with reverse transcription reactions are listed in Table St Quantitative real-time PCR was performed by using iQ SYBR Green Supermix on the CFX96 Touch Real-Time Detection System (Bio-Rad Laboratories). […] Relative gene expression was determined using the ΔΔCT method, normalizing to GAPDH (for human genes) and cyclophilin (for mouse genes). […]

[2] = system: MITF; experiment: MITF nuclear translocation in HeLa cells; format: cell-based, human; conditions: HeLa cells transfected with MITF-3×Flag
Source text: FIG. 23. Pharmacological inhibition of AKT induces nuclear translocation of TFE3 and MITF. HeLa cells were transiently transfected with TFE3-3×Flag (a) and MITF-3×Flag (b) and analyzed by confocal microscopy. Scale bar is 10 μm.

[3] = target: T1, mTORC1 (Mus musculus, UniProt Q9JLN9); experiment: Immunoblot of mTORC1 substrates in WT and Tsc2-/- MEFs; format: cell-based; conditions: Tsc2-/- and control MEFs, trehalose 100 mM 24 h
T1 construct: 100 mM) for 24 h or left untreated; endogenous in cells; host or cells: wild-type and Tsc2-/- mouse embryonic fibroblasts
Experimental: (b) Quantification of TFEB subcellular localization (C, cytoplasmic; N, nuclear) after 24 h of trehalose treatment (Tre) or in untreated cells (UT). Scale bars in a, b is 40 μm. (c) Immunoblot analyses show expression levels of substrates downstream of mTORC1. Wild-type (WT) and TSC2 null MEF cells were treated with trehalose (Tre; 100 mM) for 24 h or left untreated. As controls, cells were treated with Torin 1 (300 nM) or rapamycin (300 nM) for 2 h before extracting the lysates. Phospho- and total S6K1 (P-S6K1 and T-S6K1), phospho- and total S6 (P-S6 and T-S6) and phospho- and total 4E-BP1 (P-4E-BP1 and T-4E-BP1) were detected as readouts of mTORC1 activity. […]
(§1) Brain tissue and cultured cells were collected and lysed in RIPA buffer (50 mM Tris-HCl, ph 7.4, 1% NP40, 0.5% Na-deoxycholate, 0.1% SDS, 150 mM NaCl, 2 mM EDTA and 50 mM NaF) including a cocktail of protease (Roche) and phosphatase (SIGMA) inhibitors. Protein concentrations were measured with the bicinchoninic acid protein assay kit (Pierce, Rockford, Ill.), using bovine serum albumin as standard. […] Western blot images were acquired by LAS 4000 (GE Healthcare) and quantified using ImageJ. […]

[4] = system: Akt; experiment: Akt activity in HeLa cells, time course immunoblot; format: cell-based, human
Experimental: FIG. 14. Akt phosphorylates TFEB at Ser467. […] Dashed boxes (upper row) show the location of the higher power inserts (lower row). (b) Subcellular fractionation of HeLa/TFEB cells incubated with the same kinase inhibitors. (c) Multi-alignment of TFEB amino-acid sequences from the following species: Ac, Anolis carolensis; Bt, Bos taurus; Dr, Danio rerio; Fc, Felix catus; Gg, gallus gallus; Hs, Homo sapiens; La, Loxodonta africana; Mm, Mus musculus; Rn, Rattus Norvegicus; Sh, Sarcophilus harrisii; Sp, Strongylocentrotus purpuratus; XI, Xenopus laevis. A consensus logo of Akt phosphorylation sites (generated at weblogo.berkeley.edu/logo.cgi) is aligned with TFEB sequences. Position 467 refers to the human protein sequence. (d) Subcellular localization of TFEB and TFEB(S467A). (e) Expression analysis of lysosomal and autophagy genes in HeLa cells transfected with TFEB or TFEB(S467A). […]
as §1

Cl.NC1(c2ccc(-c3nc4ccn5c(=O)[nH]nc5c4cc3-c3ccccc3)cc2)CCC1 [MK2206, 8-[4-(1-aminocyclobutyl)phenyl]-9-phenyl-1,2,4-triazolo[3,4-f][1,6]naphthyridin-3(2H)-one]
expression of lysosomal and autophagy genes [1]: upregulated the expression of lysosomal and autophagy genes | MITF nuclear translocation [2]: promoted nuclear translocation of these two factors

OC[C@H]1O[C@H](O[C@H]2O[C@H](CO)[C@@H](O)[C@H](O)[C@H]2O)[C@H](O)[C@@H](O)[C@@H]1O [trehalose, a-D-glucopyranosyl a-D-glucopyranoside]
mTORC1 signalling [3]: does not alter mTORC1 signalling | Akt activity [4]: inhibited Akt activity
